From US20100055169A1, “CATIONIC LIPIDS AND USES THEREOF” (ABBOTT LABORATORIES, priority 2008, published 2010)

Assays:
Type in all cases: physicochemical
[1] = Particle sizing assay (Zetasizer Nano ZS), in vivo formulations; details: lipid:siRNA 25:1
Protocol: (§1) A round bottom flask was submerged into a 65° C. water bath. Citrate buffer (37.5 ml) of pH 4.0 was pipetted into the flask. The solution was stirred by a magnetic stirring bar at a speed of 900 rpm. Both the pH 4.0 citrate buffer and the lipid solution were pre-warmed in the 65° C. water bath for about 3 minutes. A siRNA solution (0.5 ml) was pipetted into the pH 4.0 citrate buffer. The 12.5 ml lipid mixture solution was injected through a 27 gauge needle into the citrate buffer in about 30 seconds. The needle tip was inserted into the solution during the injection. The resulting solution was stirred for 5 minutes at a speed of 900 rpm. The flask was pulled up from the water bath and a 50 ml pH 7.4 PBS buffer was added into the flask. The final solution was further mixed at a speed of 900 rpm for 5 minutes. For the diafiltration process, a dialysis filter (Millipore, 100K, Cat#PXB100C50) was used to remove ethanol in the above solution. When the volume was reduced to 20 ml during the initial diafiltration, 20 ml of pH 7.4 PBS was added to the sample solution. The diafiltration was continued until the volume was reduced to 20 ml. The diafiltration process was repeated 4 times. The volume of the sample solution was reduced to about 12 ml and pH 7.4 PBS was added to make the final volume of 15 ml. The 15 ml solution was filtered sequentially through the 0.45 and 0.22 μm sterile PVDF membrane filters (Millipore) and immediately transferred into a sterile vial.
For measurements of particle sizes and size distributions (PDI), lipid-based particles were prepared as described above. The particle solution (60 μL) was pipetted into a disposable cuvette (UVette, Eppendorf, cat#952010051) and measured in the “General Purpose” mode. Attenuator and position were optimized by the device. Measurements were performed using a Zetasizer Nano ZS (Malvern Instruments) equipped with a 4 mW He—Ne laser at a wavelength of 633 nm at 25° C. Scattered light was detected at a 173° backward scattering angle. The viscosity and refractive index of water at 25° C. was used for data analysis with the Dispersion Technology Software 5.00 (Malvern Instruments).

[2] = RiboGreen assay of siRNA encapsulation efficiency, in vitro formulations of Lipid-Based Particles; details: in vitro formulation b: Cationic lipid/PEG-cholesterol/DSPC/Chol 45/10/15/30 wt %, lipid:siRNA 25:1
Summary of the method: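 siRNA in pH 4.0 citrate buffer (20 mM, 0.2 mg/mL) mixed at 60 °C with an ethanolic lipid blend (cationic lipid, cholesterol, non-cationic lipid, PEG-lipid), then diluted with PBS pH 7.4. Encapsulation efficiency from RiboGreen fluorescence (480/520 nm) with siRNA released by ethanol, Triton X-100 or phenol/chloroform.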

[3] = RiboGreen assay of siRNA encapsulation efficiency, in vivo formulations of Lipid-Based Particles; details: lipid:siRNA 25:1
Protocol: RNA concentration and encapsulation efficiency were determined using a Quant-iT® Ribogreen RNA reagent and kit available from Invitrogen. The siRNA was released from the Lipid-Based Particle using one of the following reagents: ethanol, Triton X-100, or phenol/chloroform. The siRNA concentration is quantified using fluorescent reading at 480 nm/520 nm.
The lipid solution was prepared (10 mg/ml) by dissolving the lipid in 200 proof ethanol. The lipid mixture solution is prepared according to the above composition in Table 5.
An siRNA (TetR_ODC—12, G.G.G.G.A.A.A.G.C.U.G.G.C.A.A.G.A.U.U.U.U SEQ ID NO: 1) (ThermoFisher) solution is prepared in a concentration of 10 mg/ml by dissolving 10 mg siRNA in 1 ml of DNAse/RNAse-free distilled water.
as §1

[4] = in vivo formulation A: Cationic lipid/Example 73/DSPC/Chol 45/10/15/30 wt %
[5] = in vivo formulation B: Cationic lipid/PEG-cholesterol/DSPC/Chol 45/10/15/30 wt %
[6] = in vivo formulation C: Cationic lipid/Pal-PEG-Cera/DSPC/Chol 45/10/15/30 wt %
[7] = in vivo formulation D: Cationic lipid/Example 66/DSPC/Chol 45/10/15/30 wt %
[8] = in vivo formulation E: Cationic lipid/Example 53/DSPC/Chol 45/10/15/30 wt %
[9] = in vivo formulation F: Cationic lipid/Example 54/DSPC/Chol 45/10/15/30 wt %
[10] = in vivo formulation G: Cationic lipid/Example 55/DSPC/Chol 45/10/15/30 wt %
[11] = in vivo formulation H: Cationic lipid/PEG-DMPE/DSPC/Chol 45/10/15/30 wt %
[12] = in vivo formulation J: Cationic lipid/PEG-DSPE/DSPC/Chol 45/10/15/30 wt %
[13] = in vivo formulation K: Cationic lipid/PEG-DMG/DSPC/Chol 45/10/15/30 wt %
[14] = in vivo formulation M: Cationic lipid/PEG-DSG/DSPC/Chol 45/10/15/30 wt %
[15] = in vivo formulation NN: Cationic lipid/Example 74/DSPC/Chol 45/10/15/30 wt %
[16] = in vivo formulation OO: Cationic lipid/Example 75/DSPC/Chol 45/10/15/30 wt %
[17] = in vivo formulation P: Cationic lipid/PEG-DSPE/DOPE/Chol 45/10/15/30 wt %
[18] = in vivo formulation PP: Cationic lipid/Example 73/Chol 45/10/45 wt %
[19] = in vivo formulation Q: Cationic lipid/PEG-DSPE/DOPC/Chol 45/10/15/30 wt %
[20] = in vivo formulation R: Cationic lipid/PEG-DSPE/SPC/Chol 45/10/15/30 wt %

SMILES: CCCCC/C=C\C/C=C\CCCCCCCCOCC(CCN1CCCC1)OCCCCCCCC/C=C\C/C=C\CCCCC (stereo not drawn) [Example 24, 1-{3,4-bis[(9Z,12Z)-octadeca-9,12-dienyloxy]butyl}pyrrolidine]
- Size [1, 4]: 96 nm
- Size distribution (PDI) [1, 4]: (0.06)
- Size [1, 5]: 327 nm
- Size distribution (PDI) [1, 5]: (0.198)
- Size [1, 6]: 141 nm
- Size distribution (PDI) [1, 6]: (0.026)
- Size [1, 7]: 164 nm
- Size distribution (PDI) [1, 7]: (0.104)
- Size [1, 8]: 169 nm
- Size distribution (PDI) [1, 8]: (0.163)
- Size [1, 9]: 152 nm
- Size distribution (PDI) [1, 9]: (0.08)
- Size [1, 10]: 164 nm
- Size distribution (PDI) [1, 10]: (0.104)
- Size [1, 11]: 168 nm
- Size distribution (PDI) [1, 11]: (0.007)
- Size [1, 12]: 119.7 nm
- Size distribution (PDI) [1, 12]: (0.006)
- Size [1, 13]: 155 nm
- Size distribution (PDI) [1, 13]: (0.052)
- Size [1, 14]: 116.5 nm
- Size distribution (PDI) [1, 14]: (0.029)
- Size [1, 15]: 140 nm
- Size distribution (PDI) [1, 15]: (0.029)
- Size [1, 16]: 142 nm
- Size distribution (PDI) [1, 16]: (0.029)
- Size [1, 17]: 153.7 nm
- Size distribution (PDI) [1, 17]: (0.061)
- Size [1, 18]: 108.7 nm
- Size distribution (PDI) [1, 18]: (0.094)
- Size [1, 19]: 144.1 nm
- Size distribution (PDI) [1, 19]: (0.01)
- Size [1, 20]: 159.6 nm
- Size distribution (PDI) [1, 20]: (0.036)
- % Encapsulation Efficiency [2]: 97.0%
- % Encapsulation Efficiency [3, 4]: 96.6%
- % Encapsulation Efficiency [3, 5]: 89.3%
- % Encapsulation Efficiency [3, 6]: 97.8%
- % Encapsulation Efficiency [3, 7]: 97.0%
- % Encapsulation Efficiency [3, 8]: 79.3%
- % Encapsulation Efficiency [3, 9]: 96.1%
- % Encapsulation Efficiency [3, 10]: 96.7%
- % Encapsulation Efficiency [3, 11]: 97.3%
- % Encapsulation Efficiency ([3]; in vivo formulation I: Cationic lipid/PEG-DPPE/DSPC/Chol 45/10/15/30 wt %): 92%
- % Encapsulation Efficiency [3, 12]: 100%
- % Encapsulation Efficiency [3, 13]: 99.5%
- % Encapsulation Efficiency ([3]; in vivo formulation L: Cationic lipid/PEG-DPG/DSPC/Chol 45/10/15/30 wt %): 90%
- % Encapsulation Efficiency [3, 14]: 100%
- % Encapsulation Efficiency [3, 15]: 97.3%
- % Encapsulation Efficiency [3, 16]: 99.5%
- % Encapsulation Efficiency [3, 17]: 97%
- % Encapsulation Efficiency [3, 18]: 97.4%
- % Encapsulation Efficiency [3, 19]: 97%
- % Encapsulation Efficiency [3, 20]: 97%
